Test results taken from PubChem BioAssay AID1259407 (Chemical Carcinogenesis Research Information System (CCRIS), 2018).
The source made the active and inactive calls. How the calls were made is not given here.

Tested on: CCRIS mutagenicity, Ames/micronucleus/aberration tests
Assay: CCRIS mutagenicity studies

In the case of `ClC=C(Cl)Cl`, the mutagenic call (End Point: IN VITRO CHROMOSOMAL ABERRATIONS, Test System: CHINESE HAMSTER LUNG FIBROBLAST CELLS (CHL/IU), Metabolic Activation: NONE) is reported as “inactive; negative”, the mutagenic call (End Point: IN VITRO CHROMOSOMAL ABERRATIONS, Test System: CHINESE HAMSTER LUNG FIBROBLAST CELLS (CHL/IU), Metabolic Activation: RAT, LIVER, S-9, PHENOBARBITAL AND 5,6-BENZOFLAVONE) is reported as “inactive; negative” and the mutagenic call (End Point: IN VITRO CHROMOSOMAL ABERRATIONS, Test System: CHINESE HAMSTER OVARY CELLS, Metabolic Activation: NONE) is reported as “inactive; negative; precipitation occurred at all doses”. The mutagenic call (End Point: IN VITRO CHROMOSOMAL ABERRATIONS, Test System: CHINESE HAMSTER OVARY CELLS, Metabolic Activation: RAT, LIVER, S-9, AROCLOR 1254) was “inactive; negative; precipitation occurred at all doses”, the mutagenic call (End Point: IN VITRO MICRONUCLEUS, Test System: V79 CELLS, Metabolic Activation: NONE) was “inactive; negative” and the mutagenic call (End Point: IN VITRO MICRONUCLEUS, Test System: V79 CELLS, Metabolic Activation: RAT, LIVER, S-9, AROCLOR 1254) was “inactive; negative”. The mutagenic call (Test System: AMES SALMONELLA TYPHIMURIUM, Strain/Indicator: TA97, Metabolic Activation: NONE, Method: STANDARD PLATE) was “active; positive”, the mutagenic call (Test System: AMES SALMONELLA TYPHIMURIUM, Strain/Indicator: TA97, Metabolic Activation: RAT, LIVER, S-9, AROCLOR 1254, Method: STANDARD PLATE) was “active; positive” and the mutagenic call (Test System: AMES SALMONELLA TYPHIMURIUM, Strain/Indicator: TA98, Metabolic Activation: HAMSTER, LIVER, S-9, AROCLOR 1254, Method: DESICCATOR) was “inactive; negative”. The mutagenic call (Test System: AMES SALMONELLA TYPHIMURIUM, Strain/Indicator: TA98, Metabolic Activation: HAMSTER, LIVER, S-9, AROCLOR 1254, Method: PREINCUBATION) was “inactive; negative”, the mutagenic call (Test System: AMES SALMONELLA TYPHIMURIUM, Strain/Indicator: TA98, Metabolic Activation: NONE, Method: DESICCATOR) was “inactive; negative” and the mutagenic call (Test System: AMES SALMONELLA TYPHIMURIUM, Strain/Indicator: TA98, Metabolic Activation: NONE, Method: PREINCUBATION) was “inactive; negative”. The mutagenic call (Test System: AMES SALMONELLA TYPHIMURIUM, Strain/Indicator: TA98, Metabolic Activation: NONE, Method: STANDARD PLATE) was “inactive; negative”, the mutagenic call (Test System: AMES SALMONELLA TYPHIMURIUM, Strain/Indicator: TA98, Metabolic Activation: RAT, LIVER, S-9, AROCLOR 1254, Method: DESICCATOR) was “inactive; negative” and the mutagenic call (Test System: AMES SALMONELLA TYPHIMURIUM, Strain/Indicator: TA98, Metabolic Activation: RAT, LIVER, S-9, AROCLOR 1254, Method: PREINCUBATION) was “inactive; negative”. For the same compound, the mutagenic call (Test System: AMES SALMONELLA TYPHIMURIUM, Strain/Indicator: TA98, Metabolic Activation: RAT, LIVER, S-9, AROCLOR 1254, Method: STANDARD PLATE) was “active; positive”, the mutagenic call (Test System: AMES SALMONELLA TYPHIMURIUM, Strain/Indicator: TA100, Metabolic Activation: HAMSTER, LIVER, S-9, AROCLOR 1254, Method: DESICCATOR) was “inactive; negative” and the mutagenic call (Test System: AMES SALMONELLA TYPHIMURIUM, Strain/Indicator: TA100, Metabolic Activation: HAMSTER, LIVER, S-9, AROCLOR 1254, Method: PREINCUBATION) was “inactive; negative”. The mutagenic call (Test System: AMES SALMONELLA TYPHIMURIUM, Strain/Indicator: TA100, Metabolic Activation: MOUSE, LIVER, S-9, AROCLOR 1254, Method: DESICCATOR) was “active; positive”, the mutagenic call (Test System: AMES SALMONELLA TYPHIMURIUM, Strain/Indicator: TA100, Metabolic Activation: NONE, Method: DESICCATOR) was “inactive; negative” and the mutagenic call (Test System: AMES SALMONELLA TYPHIMURIUM, Strain/Indicator: TA100, Metabolic Activation: NONE, Method: PREINCUBATION) was “inactive; negative”. For the same compound, the mutagenic call (Test System: AMES SALMONELLA TYPHIMURIUM, Strain/Indicator: TA100, Metabolic Activation: NONE, Method: STANDARD PLATE) was “inactive; negative”, the mutagenic call (Test System: AMES SALMONELLA TYPHIMURIUM, Strain/Indicator: TA100, Metabolic Activation: NONE, Method: VAPOR CHAMBER) was “inactive; negative” and the mutagenic call (Test System: AMES SALMONELLA TYPHIMURIUM, Strain/Indicator: TA100, Metabolic Activation: RAT, LIVER, S-9, AROCLOR 1254, Method: DESICCATOR) was “inactive; negative”. The mutagenic call (Test System: AMES SALMONELLA TYPHIMURIUM, Strain/Indicator: TA100, Metabolic Activation: RAT, LIVER, S-9, AROCLOR 1254, Method: PREINCUBATION) was “inactive; negative”, the mutagenic call (Test System: AMES SALMONELLA TYPHIMURIUM, Strain/Indicator: TA100, Metabolic Activation: RAT, LIVER, S-9, AROCLOR 1254, Method: STANDARD PLATE) was “inactive; negative” and the mutagenic call (Test System: AMES SALMONELLA TYPHIMURIUM, Strain/Indicator: TA102, Metabolic Activation: S-9, Method: STANDARD PLATE) was “inactive; negative”. The mutagenic call (Test System: AMES SALMONELLA TYPHIMURIUM, Strain/Indicator: TA104, Metabolic Activation: NONE, Method: STANDARD PLATE) was “inactive; negative”, the mutagenic call (Test System: AMES SALMONELLA TYPHIMURIUM, Strain/Indicator: TA104, Metabolic Activation: RAT, LIVER, S-9, AROCLOR 1254, Method: STANDARD PLATE) was “inactive; negative” and the mutagenic call (Test System: AMES SALMONELLA TYPHIMURIUM, Strain/Indicator: TA1535, Metabolic Activation: HAMSTER, LIVER, S-9, AROCLOR 1254, Method: PREINCUBATION) was “inactive; negative”. The mutagenic call (Test System: AMES SALMONELLA TYPHIMURIUM, Strain/Indicator: TA1535, Metabolic Activation: NONE, Method: DESICCATOR) was “active; positive”, the mutagenic call (Test System: AMES SALMONELLA TYPHIMURIUM, Strain/Indicator: TA1535, Metabolic Activation: NONE, Method: PREINCUBATION) was “inactive; negative” and the mutagenic call (Test System: AMES SALMONELLA TYPHIMURIUM, Strain/Indicator: TA1535, Metabolic Activation: NONE, Method: VAPOR CHAMBER) was “inactive; negative”. For the same compound, the mutagenic call (Test System: AMES SALMONELLA TYPHIMURIUM, Strain/Indicator: TA1535, Metabolic Activation: RAT, LIVER, S-9, AROCLOR 1254, Method: DESICCATOR) was “active; positive”, the mutagenic call (Test System: AMES SALMONELLA TYPHIMURIUM, Strain/Indicator: TA1535, Metabolic Activation: RAT, LIVER, S-9, AROCLOR 1254, Method: PREINCUBATION) was “inactive; negative” and the mutagenic call (Test System: AMES SALMONELLA TYPHIMURIUM, Strain/Indicator: TA1537, Metabolic Activation: HAMSTER, LIVER, S-9, AROCLOR 1254, Method: PREINCUBATION) was “inactive; negative”. For the same compound, the mutagenic call (Test System: AMES SALMONELLA TYPHIMURIUM, Strain/Indicator: TA1537, Metabolic Activation: NONE, Method: PREINCUBATION) was “inactive; negative”, the mutagenic call (Test System: AMES SALMONELLA TYPHIMURIUM, Strain/Indicator: TA1537, Metabolic Activation: RAT, LIVER, S-9, AROCLOR 1254, Method: PREINCUBATION) was “inactive; negative” and the mutagenic call (Test System: AMES SALMONELLA TYPHIMURIUM, Strain/Indicator: TA2638, Metabolic Activation: S-9, Method: STANDARD PLATE) was “inactive; negative”. For the same compound, the mutagenic call (Test System: E. COLI, Strain/Indicator: WP2 (PKM101), Metabolic Activation: S-9, Method: STANDARD PLATE) was “inactive; negative”, the mutagenic call (Test System: E. COLI, Strain/Indicator: WP2 UVRA (PKM101), Metabolic Activation: S-9, Method: STANDARD PLATE) was “inactive; negative” and the mutagenic call (Test System: MOUSE LYMPHOMA, Strain/Indicator: L5178Y (TK+/TK-), Metabolic Activation: NONE, Method: SUSPENSION/PLATE) was “inactive; negative”. The mutagenic call (Test System: MOUSE LYMPHOMA, Strain/Indicator: L5178Y (TK+/TK-), Metabolic Activation: RAT, LIVER, S-9, AROCLOR 1254, Method: SUSPENSION/PLATE) was “active; positive”.
